Laboratory results reported in the NIST ThermoML archive (doi:10.1007/s10765-007-0223-x).

Test: xn = mol fraction of the nth substance listed
Conditions: 101 kPa, Liquid; for speed of sound: Single path-length method

COC(C)(C)C [2-methoxy-2-methylpropane] + CC(C)CC(C)(C)C
Conditions	mass density [kg/m3]	speed of sound [m/s]
288.15 K, x1 = 0.049	697.553	1121.8
288.15 K, x1 = 0.091	698.921	1119.5
288.15 K, x1 = 0.197	702.655	1113.9
288.15 K, x1 = 0.296	706.427	1108.7
288.15 K, x1 = 0.394	710.506	1103.7
288.15 K, x1 = 0.507	715.659	1098.5
288.15 K, x1 = 0.603	720.373	1094.9
288.15 K, x1 = 0.7	725.737	1090.9
288.15 K, x1 = 0.79	731.164	1087.8
288.15 K, x1 = 0.898	738.236	1084.6
288.15 K, x1 = 0.951	742.111	1083.4
288.15 K, x1 = 1	744.861	1082.1
290.65 K, x1 = 0.049	695.495	1111.2
290.65 K, x1 = 0.091	696.847	1108.8
290.65 K, x1 = 0.197	700.534	1103.3
290.65 K, x1 = 0.296	704.261	1097.9
290.65 K, x1 = 0.394	708.292	1092.9
290.65 K, x1 = 0.507	713.386	1087.6
290.65 K, x1 = 0.603	718.048	1083.9
290.65 K, x1 = 0.7	723.357	1079.8
290.65 K, x1 = 0.79	728.726	1076.7
290.65 K, x1 = 0.898	735.725	1073.3
290.65 K, x1 = 0.951	739.564	1072
290.65 K, x1 = 1	742.259	1070.6
293.15 K, x1 = 0.049	693.424	1100.6
293.15 K, x1 = 0.091	694.76	1098.2
293.15 K, x1 = 0.197	698.399	1092.6
293.15 K, x1 = 0.296	702.081	1087.1
293.15 K, x1 = 0.394	706.064	1082
293.15 K, x1 = 0.507	711.097	1076.7
293.15 K, x1 = 0.603	715.704	1072.9
293.15 K, x1 = 0.7	720.957	1068.7
293.15 K, x1 = 0.79	726.269	1065.5
293.15 K, x1 = 0.898	733.196	1062
293.15 K, x1 = 0.951	736.997	1060.6
293.15 K, x1 = 1	739.654	1059.1
295.65 K, x1 = 0.049	691.351	1090
295.65 K, x1 = 0.091	692.668	1087.5
295.65 K, x1 = 0.197	696.259	1081.8
295.65 K, x1 = 0.296	699.893	1076.2
295.65 K, x1 = 0.394	703.829	1071.1
295.65 K, x1 = 0.507	708.799	1065.6
295.65 K, x1 = 0.603	713.354	1061.7
295.65 K, x1 = 0.7	718.545	1057.5
295.65 K, x1 = 0.79	723.8	1054.2
295.65 K, x1 = 0.898	730.656	1050.5
295.65 K, x1 = 0.951	734.419	1049
295.65 K, x1 = 1	737.036	1047.8
298.15 K, x1 = 0.049	689.271	1079.4
298.15 K, x1 = 0.091	690.571	1076.9
298.15 K, x1 = 0.197	694.113	1071.2
298.15 K, x1 = 0.296	697.7	1065.5
298.15 K, x1 = 0.394	701.586	1060.2
298.15 K, x1 = 0.507	706.495	1054.7
298.15 K, x1 = 0.603	710.995	1050.7
298.15 K, x1 = 0.7	716.128	1046.4
298.15 K, x1 = 0.79	721.323	1042.9
298.15 K, x1 = 0.898	728.107	1039.2
298.15 K, x1 = 0.951	731.831	1037.6
298.15 K, x1 = 1	734.406	1036.6
300.65 K, x1 = 0.049	687.187	1068.9
300.65 K, x1 = 0.091	688.468	1066.3
300.65 K, x1 = 0.197	691.962	1060.5
300.65 K, x1 = 0.296	695.502	1054.7
300.65 K, x1 = 0.394	699.338	1049.4
300.65 K, x1 = 0.507	704.182	1043.8
300.65 K, x1 = 0.603	708.63	1039.7
300.65 K, x1 = 0.7	713.701	1035.2
300.65 K, x1 = 0.79	718.837	1031.7
300.65 K, x1 = 0.898	725.547	1027.9
300.65 K, x1 = 0.951	729.232	1026.2
300.65 K, x1 = 1	731.766	1025.4
303.15 K, x1 = 0.049	685.097	1058.4
303.15 K, x1 = 0.091	686.359	1055.8
303.15 K, x1 = 0.197	689.806	1050
303.15 K, x1 = 0.296	693.296	1044
303.15 K, x1 = 0.394	697.081	1038.7
303.15 K, x1 = 0.507	701.866	1032.8
303.15 K, x1 = 0.603	706.257	1028.7
303.15 K, x1 = 0.7	711.266	1024.1
303.15 K, x1 = 0.79	716.339	1020.4
303.15 K, x1 = 0.898	722.977	1016.5
303.15 K, x1 = 0.951	726.622	1014.8
303.15 K, x1 = 1	729.112	1014
305.65 K, x1 = 0.049	683.001	1048.1
305.65 K, x1 = 0.091	684.244	1045.4
305.65 K, x1 = 0.197	687.643	1039.5
305.65 K, x1 = 0.296	691.083	1033.4
305.65 K, x1 = 0.394	694.818	1028
305.65 K, x1 = 0.507	699.54	1021.9
305.65 K, x1 = 0.603	703.873	1017.7
305.65 K, x1 = 0.7	708.82	1013
305.65 K, x1 = 0.79	713.83	1009.2
305.65 K, x1 = 0.898	720.394	1005.2
305.65 K, x1 = 0.951	723.998	1003.4
305.65 K, x1 = 1	726.444	1002.7
308.15 K, x1 = 0.049	680.9	1037.7
308.15 K, x1 = 0.091	682.124	1035
308.15 K, x1 = 0.197	685.47	1029
308.15 K, x1 = 0.296	688.864	1022.8
308.15 K, x1 = 0.394	692.544	1017.6
308.15 K, x1 = 0.507	697.225	1011
308.15 K, x1 = 0.603	701.481	1006.8
308.15 K, x1 = 0.7	706.365	1002
308.15 K, x1 = 0.79	711.31	998.04
308.15 K, x1 = 0.898	717.802	993.91
308.15 K, x1 = 0.951	721.377	992.13
308.15 K, x1 = 1	723.763	991.34
310.65 K, x1 = 0.049	678.79	1027.3
310.65 K, x1 = 0.091	679.994	1024.6
310.65 K, x1 = 0.197	683.293	1018.5
310.65 K, x1 = 0.296	686.637	1012.2
310.65 K, x1 = 0.394	690.27	1006.9
310.65 K, x1 = 0.507	694.875	1000.2
310.65 K, x1 = 0.603	699.077	995.9
310.65 K, x1 = 0.7	703.915	991.12
310.65 K, x1 = 0.79	708.777	986.9
310.65 K, x1 = 0.898	715.208	982.76
310.65 K, x1 = 0.951	718.741	981.15
310.65 K, x1 = 1	721.069	980
313.15 K, x1 = 0.049	676.674	1017
313.15 K, x1 = 0.091	677.857	1014.4
313.15 K, x1 = 0.197	681.108	1008
313.15 K, x1 = 0.296	684.416	1001.9
313.15 K, x1 = 0.394	687.984	996.15
313.15 K, x1 = 0.507	692.513	989.48
313.15 K, x1 = 0.603	696.659	984.99
313.15 K, x1 = 0.7	701.432	980.08
313.15 K, x1 = 0.79	706.232	975.76
313.15 K, x1 = 0.898	712.585	971.49
313.15 K, x1 = 0.951	716.075	969.68
313.15 K, x1 = 1	718.357	968.63
315.65 K, x1 = 0.049	674.551	1006.8
315.65 K, x1 = 0.091	675.716	1004
315.65 K, x1 = 0.197	678.915	997.54
315.65 K, x1 = 0.296	682.172	991.38
315.65 K, x1 = 0.394	685.682	985.48
315.65 K, x1 = 0.507	690.141	978.73
315.65 K, x1 = 0.603	694.229	974.09
315.65 K, x1 = 0.7	698.938	969.06
315.65 K, x1 = 0.79	703.665	964.56
315.65 K, x1 = 0.898	709.948	960.23
315.65 K, x1 = 0.951	713.392	958.31
315.65 K, x1 = 1	715.636	957.31
318.15 K, x1 = 0.049	672.418	996.53
318.15 K, x1 = 0.091	673.564	993.65
318.15 K, x1 = 0.197	676.709	987.14
318.15 K, x1 = 0.296	679.911	980.84
318.15 K, x1 = 0.394	683.366	974.83
318.15 K, x1 = 0.507	687.763	968.07
318.15 K, x1 = 0.603	691.788	963.2
318.15 K, x1 = 0.7	696.427	958.04
318.15 K, x1 = 0.79	701.097	953.55
318.15 K, x1 = 0.898	707.292	949.03
318.15 K, x1 = 0.951	710.693	947.02
318.15 K, x1 = 1	712.897	946.03
320.65 K, x1 = 0.049	670.282	986.33
320.65 K, x1 = 0.091	671.436	983.34
320.65 K, x1 = 0.197	674.493	976.73
320.65 K, x1 = 0.296	677.642	970.3
320.65 K, x1 = 0.394	681.043	964.2
320.65 K, x1 = 0.507	685.37	957.34
320.65 K, x1 = 0.603	689.334	952.36
320.65 K, x1 = 0.7	693.905	947.08
320.65 K, x1 = 0.79	698.504	942.46
320.65 K, x1 = 0.898	704.622	937.81
320.65 K, x1 = 0.951	707.978	935.72
320.65 K, x1 = 1	710.141	934.76
323.15 K, x1 = 0.049	668.138	976.18
323.15 K, x1 = 0.091	669.267	973.04
323.15 K, x1 = 0.197	672.267	966.34
323.15 K, x1 = 0.296	675.361	959.8
323.15 K, x1 = 0.394	678.707	953.63
323.15 K, x1 = 0.507	682.969	946.69
323.15 K, x1 = 0.603	686.867	941.57
323.15 K, x1 = 0.7	691.375	936.24
323.15 K, x1 = 0.79	695.909	931.51
323.15 K, x1 = 0.898	701.938	926.65
323.15 K, x1 = 0.951	705.25	924.5
323.15 K, x1 = 1	707.381	923.46
